Experimental data published in patent US20260317344A1, “EGFR INHIBITORS FOR TREATING DISEASE” (BLOSSOMHILL THERAPEUTICS, INC., priority 2023, published 2026).

Columns and labels:
EGFR (L858R/T790M/C797S) = EGFR (L858R/T790M/C797S) (Homo sapiens, UniProt P00533, C797S/L858R/T790M); test: HotSpot radiometric kinase assay, inhibition of EGFR L858R/T790M/C797S mutant; format: biochemical; conditions: 33P ATP, room temperature, 120 m
Summary of the method: (§1)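 Radiometric filter-binding format: ATP plus 33P-ATP ([…]) was added about 20 min after compound to kinase and substrate in HEPES pH 7.5 buffer with Mg2+, EGTA, Brij35, BSA, vanadate, DTT and 1% DMSO. After 120 min at room temperature, reactions were spotted on P81 paper and washed in phosphoric acid; IC50 values fitted.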

EGFR WT = EGFR WT (Homo sapiens, UniProt P00533); test: HotSpot radiometric kinase assay, inhibition of EGFR WT; format: biochemical; conditions: 33P ATP, room temperature, 120 m
Description: (§2) Biochemical Assays for inhibition of wild-type and mutant EGFRs
(§3) Briefly, specific kinase/substrate pairs along with required cofactors were prepared in reaction buffer; 20 mM HEPES pH 7.5, 10 mM […], 1 mM EGTA, 0.02% Brij35, 0.02 mg/ml BSA, 0.1 mM Na3VO4, 2 mM DTT, 1% DMSO. Compounds were delivered into the reaction, followed ~20 minutes later by addition of a mixture of ATP (Sigma, St. Louis MO) and ^33P ATP (Perkin Elmer, Waltham MA) to a final concentration of […]. Reactions were carried out at room temperature for 120 m, followed by spotting of the reactions onto P81 ion exchange filter paper (Whatman Inc., Piscataway, NJ). Unbound phosphate was removed by extensive washing of filters in 0.75% phosphoric acid. […] IC50 values and curve fits were obtained using Prism (GraphPad Software).

EGFR (D746-750/C797S) = EGFR (D746-750/C797S) (Homo sapiens, UniProt P00533, C797S/DEL746-750); test: HotSpot radiometric kinase assay, inhibition of EGFR 746-750/C797S mutant; format: biochemical; conditions: 33P ATP, room temperature, 120 m
EGFR (D746-750/C797S), sequence (P00533 with tags, fused parts or gaps DEL746-750/C797S): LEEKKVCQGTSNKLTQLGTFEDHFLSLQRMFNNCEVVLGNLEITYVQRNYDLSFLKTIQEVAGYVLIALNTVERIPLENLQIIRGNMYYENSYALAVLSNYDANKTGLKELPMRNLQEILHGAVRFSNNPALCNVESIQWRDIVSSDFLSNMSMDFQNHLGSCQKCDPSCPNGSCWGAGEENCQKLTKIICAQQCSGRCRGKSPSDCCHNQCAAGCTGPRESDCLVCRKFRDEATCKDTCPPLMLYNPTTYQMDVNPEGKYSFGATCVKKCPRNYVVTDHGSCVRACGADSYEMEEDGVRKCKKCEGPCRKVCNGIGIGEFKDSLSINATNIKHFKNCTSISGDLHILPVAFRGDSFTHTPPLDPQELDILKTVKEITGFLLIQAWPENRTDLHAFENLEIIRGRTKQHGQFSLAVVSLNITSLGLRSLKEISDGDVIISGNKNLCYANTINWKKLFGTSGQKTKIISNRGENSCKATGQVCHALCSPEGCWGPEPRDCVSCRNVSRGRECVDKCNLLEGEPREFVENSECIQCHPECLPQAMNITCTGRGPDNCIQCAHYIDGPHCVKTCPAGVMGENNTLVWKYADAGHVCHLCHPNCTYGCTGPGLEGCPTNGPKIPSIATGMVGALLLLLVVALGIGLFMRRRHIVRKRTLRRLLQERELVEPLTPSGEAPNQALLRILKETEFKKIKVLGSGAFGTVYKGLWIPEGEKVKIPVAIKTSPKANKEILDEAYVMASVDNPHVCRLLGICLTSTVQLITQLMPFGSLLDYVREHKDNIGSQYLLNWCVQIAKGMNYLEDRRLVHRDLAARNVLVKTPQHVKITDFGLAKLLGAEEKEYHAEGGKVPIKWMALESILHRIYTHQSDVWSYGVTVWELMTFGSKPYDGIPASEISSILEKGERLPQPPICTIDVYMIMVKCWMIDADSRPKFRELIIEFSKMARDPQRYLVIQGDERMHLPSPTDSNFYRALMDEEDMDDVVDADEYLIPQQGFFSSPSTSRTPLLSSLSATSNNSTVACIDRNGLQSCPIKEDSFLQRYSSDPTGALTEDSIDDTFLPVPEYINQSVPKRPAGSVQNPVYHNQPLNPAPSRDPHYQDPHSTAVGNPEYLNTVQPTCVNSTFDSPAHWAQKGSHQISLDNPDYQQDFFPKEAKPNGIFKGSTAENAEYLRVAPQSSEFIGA
Summary of the method: as §1

HCC827 cells = test: 5-Day CellTiter Glo (CTG) cell proliferation assay, HCC827; format: cell-based; conditions: Homo sapiens; HCC827 cells (d746-750 EGFR), 5-day CTG proliferation, 120 hours; read-out: HCC827 IC50
Summary of the method: (§4)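 Proliferation of EGFR-driven NSCLC cells was scored as CellTiter-Glo 2.0 luminescence after a 5-day (120 h) incubation with compounds in 9 doses. IC50 values came from the dose-response curves.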

PC-9 cells = test: 5-Day CellTiter Glo (CTG) cell proliferation assay, PC-9; format: cell-based; conditions: Homo sapiens; PC-9 cells (d746-750 EGFR), 5-day CTG proliferation, 120 hours; read-out: PC-9 IC50
Summary of the method: as §4

[1] = target: T1, pEGFR, NCI-H1975 cells (L858R/T790M EGFR) (Homo sapiens, UniProt P00533, L858R/T790M); test: Cellular EGFR phosphorylation assay (LANCE Ultra TR-FRET) in NCI-H1975 cells; format: cell-based; conditions: 4 hours at 37° C., read-out: H1975 pEGFR IC50
T1 construct: pEGFR (Tyr1068) TR-FRET
Summary of the method: (§5)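 Phospho-EGFR (Tyr1068) measured by TR-FRET in lysates after 4 h compound exposure at 37° C (9 doses, 3-fold steps). A431 cells, seeded at 30 thousand per well, received 40 ng/mL EGF for the last 10 min; PC-9 and NCI-H1975 seeded at 50 thousand per well, unstimulated. IC50 values reported.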

[2] = target: T2, pEGFR, PC-9 cells (d746-750 EGFR) (Homo sapiens, UniProt P00533, DEL746-750); test: Cellular EGFR phosphorylation assay (LANCE Ultra TR-FRET) in PC-9 cells; format: cell-based; conditions: 4 hours at 37° C., read-out: PC-9 pEGFR IC50
T2 construct: pEGFR (Tyr1068) TR-FRET
Summary of the method: as §5

NCI-H1975 cells = test: 5-Day CellTiter Glo (CTG) cell proliferation assay, NCI-H1975; format: cell-based; conditions: Homo sapiens; NCI-H1975 cells (L858R/T790M EGFR), 5-day CTG proliferation, 120 hours; read-out: H1975 IC50
Summary of the method: as §4

[3] = target: T3, pEGFR, A431 cells (wildtype EGFR) (Homo sapiens, UniProt P00533); test: Cellular EGFR phosphorylation assay (LANCE Ultra TR-FRET) in A431 cells; format: cell-based; conditions: 4 hours at 37° C., 40 ng/mL EGF for the final 10 minutes, read-out: A431 pEGFR IC50
T3 construct: pEGFR (Tyr1068) TR-FRET
Summary of the method: as §5

EGFR (D746-750) = EGFR (D746-750) (Homo sapiens, UniProt P00533, DEL746-750); test: HotSpot radiometric kinase assay, inhibition of EGFR 746-750 mutant; format: biochemical; conditions: 33P ATP, room temperature, 120 m
Summary of the method: as §1

EGFR (L858R/T790M) = EGFR (L858R/T790M) (Homo sapiens, UniProt P00533, L858R/T790M); test: HotSpot radiometric kinase assay, inhibition of EGFR L858R/T790M mutant; format: biochemical; conditions: 33P ATP, room temperature, 120 m
EGFR (L858R/T790M), sequence (P00533 25-1210 T790M/L858R): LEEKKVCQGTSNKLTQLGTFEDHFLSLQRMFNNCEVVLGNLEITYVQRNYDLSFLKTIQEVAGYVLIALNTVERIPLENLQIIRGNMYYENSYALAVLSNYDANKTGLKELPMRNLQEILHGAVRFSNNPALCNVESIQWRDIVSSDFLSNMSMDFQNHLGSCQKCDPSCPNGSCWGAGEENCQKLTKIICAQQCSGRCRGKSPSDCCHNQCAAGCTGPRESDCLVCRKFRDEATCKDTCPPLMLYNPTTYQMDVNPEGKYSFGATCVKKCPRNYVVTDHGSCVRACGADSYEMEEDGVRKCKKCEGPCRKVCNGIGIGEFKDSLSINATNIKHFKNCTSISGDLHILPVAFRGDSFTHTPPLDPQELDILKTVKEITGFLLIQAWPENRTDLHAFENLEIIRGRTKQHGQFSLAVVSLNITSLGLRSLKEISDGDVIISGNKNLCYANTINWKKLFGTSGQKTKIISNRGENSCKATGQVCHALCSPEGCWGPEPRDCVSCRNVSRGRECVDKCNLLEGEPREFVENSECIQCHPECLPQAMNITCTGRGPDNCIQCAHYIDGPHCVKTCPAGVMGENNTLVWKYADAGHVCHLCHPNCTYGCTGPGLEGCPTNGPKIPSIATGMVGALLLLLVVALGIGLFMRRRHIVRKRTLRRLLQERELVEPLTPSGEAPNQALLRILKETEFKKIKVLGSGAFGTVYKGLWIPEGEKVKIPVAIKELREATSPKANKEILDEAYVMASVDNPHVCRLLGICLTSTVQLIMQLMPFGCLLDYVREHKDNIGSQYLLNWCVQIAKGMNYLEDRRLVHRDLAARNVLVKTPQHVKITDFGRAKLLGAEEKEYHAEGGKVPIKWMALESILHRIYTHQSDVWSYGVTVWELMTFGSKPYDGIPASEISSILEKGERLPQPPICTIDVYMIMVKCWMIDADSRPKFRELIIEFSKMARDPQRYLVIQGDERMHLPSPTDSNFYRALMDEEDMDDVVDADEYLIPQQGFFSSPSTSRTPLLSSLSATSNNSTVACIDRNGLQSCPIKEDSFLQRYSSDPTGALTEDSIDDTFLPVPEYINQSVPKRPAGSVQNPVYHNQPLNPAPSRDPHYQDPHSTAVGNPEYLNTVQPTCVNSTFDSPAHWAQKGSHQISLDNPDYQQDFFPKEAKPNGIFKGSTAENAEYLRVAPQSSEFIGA
Description: as §2, §3

EGFR (D770_N771insNPG) = EGFR (D770_N771insNPG) (Homo sapiens, UniProt P00533, INS770NPG); test: HotSpot radiometric kinase assay, inhibition of EGFR (D770_N771insNPG) mutant; format: biochemical; conditions: 33P ATP, room temperature, 120 m
EGFR (D770_N771insNPG), sequence (P00533 with tags, fused parts or gaps INS770NPG limits assumed): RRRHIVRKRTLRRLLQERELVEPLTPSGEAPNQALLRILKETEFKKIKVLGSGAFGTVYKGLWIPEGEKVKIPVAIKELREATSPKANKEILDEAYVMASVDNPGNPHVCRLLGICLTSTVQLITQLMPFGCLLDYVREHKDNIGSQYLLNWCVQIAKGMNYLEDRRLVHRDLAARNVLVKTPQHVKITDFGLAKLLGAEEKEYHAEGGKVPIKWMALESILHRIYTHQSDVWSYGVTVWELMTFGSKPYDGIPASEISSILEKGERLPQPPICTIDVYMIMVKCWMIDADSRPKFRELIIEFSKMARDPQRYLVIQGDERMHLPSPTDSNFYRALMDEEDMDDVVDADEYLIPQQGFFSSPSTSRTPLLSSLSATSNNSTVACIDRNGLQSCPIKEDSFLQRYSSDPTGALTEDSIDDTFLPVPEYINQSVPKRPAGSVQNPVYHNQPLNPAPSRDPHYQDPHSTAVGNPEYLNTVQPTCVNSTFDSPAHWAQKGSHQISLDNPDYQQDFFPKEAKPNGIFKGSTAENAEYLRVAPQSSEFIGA
Summary of the method: as §1

EGFR (L858R) = EGFR (L858R) (Homo sapiens, UniProt P00533, L858R); test: HotSpot radiometric kinase assay, inhibition of EGFR L858R mutant; format: biochemical; conditions: 33P ATP, room temperature, 120 m
EGFR (L858R), sequence (P00533 25-1210 L858R): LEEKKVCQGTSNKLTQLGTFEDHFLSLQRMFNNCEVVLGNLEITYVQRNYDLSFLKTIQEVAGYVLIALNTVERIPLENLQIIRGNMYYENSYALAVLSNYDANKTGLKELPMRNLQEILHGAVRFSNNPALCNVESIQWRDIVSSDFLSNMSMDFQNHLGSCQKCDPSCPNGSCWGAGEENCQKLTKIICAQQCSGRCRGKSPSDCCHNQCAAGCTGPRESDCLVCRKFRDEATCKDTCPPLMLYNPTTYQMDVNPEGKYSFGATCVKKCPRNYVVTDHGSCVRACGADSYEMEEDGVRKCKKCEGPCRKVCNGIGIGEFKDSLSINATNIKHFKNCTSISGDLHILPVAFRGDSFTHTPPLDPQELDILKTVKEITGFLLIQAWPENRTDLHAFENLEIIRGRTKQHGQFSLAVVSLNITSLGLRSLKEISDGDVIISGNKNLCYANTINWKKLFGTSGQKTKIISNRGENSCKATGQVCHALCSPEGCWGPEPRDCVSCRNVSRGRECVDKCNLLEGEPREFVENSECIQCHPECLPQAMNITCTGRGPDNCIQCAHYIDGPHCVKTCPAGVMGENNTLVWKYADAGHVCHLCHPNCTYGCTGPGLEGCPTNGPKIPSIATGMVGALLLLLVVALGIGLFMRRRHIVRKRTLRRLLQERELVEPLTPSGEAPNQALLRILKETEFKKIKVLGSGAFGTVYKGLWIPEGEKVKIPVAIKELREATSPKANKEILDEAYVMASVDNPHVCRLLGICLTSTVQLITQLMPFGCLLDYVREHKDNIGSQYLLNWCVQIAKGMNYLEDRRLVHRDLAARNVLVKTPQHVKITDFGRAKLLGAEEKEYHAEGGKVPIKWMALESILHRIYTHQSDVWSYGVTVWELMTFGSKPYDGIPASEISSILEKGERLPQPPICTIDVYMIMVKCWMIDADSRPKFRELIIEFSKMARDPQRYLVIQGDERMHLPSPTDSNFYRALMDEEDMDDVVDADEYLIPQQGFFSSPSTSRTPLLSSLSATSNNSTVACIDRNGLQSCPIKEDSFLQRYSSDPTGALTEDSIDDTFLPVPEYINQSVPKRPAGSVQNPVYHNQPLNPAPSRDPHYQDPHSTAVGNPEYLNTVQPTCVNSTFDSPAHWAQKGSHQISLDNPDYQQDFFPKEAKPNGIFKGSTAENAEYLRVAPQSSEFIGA
Description: as §2, §3

[4] = tested on: BaF3 cells with engineered EGFR L858R/C797S; test: 3-Day CellTiter Glo (CTG) cell proliferation assay, BaF3 EGFR L858R/C797S; format: cell-based; conditions: Mus musculus, 3-day CTG proliferation, 72 hours
Summary of the method: (§6)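 Luminescent ATP read-out (CellTiter-Glo 2.0) after 72 h compound exposure gives IC50 values. BaF3 transgenic cells, one thousand per well, received a nine-dose series and were kept at 37 °C under 5% CO2.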

[5] = tested on: BaF3 cells with engineered EGFR L858R/T790M/C797S; test: 3-Day CellTiter Glo (CTG) cell proliferation assay, BaF3 EGFR L858R/T790M/C797S; format: cell-based; conditions: Mus musculus, 3-day CTG proliferation, 72 hours
Summary of the method: as §6

[6] = tested on: BaF3 cells with engineered EGFR d746-750/T790M; test: 3-Day CellTiter Glo (CTG) cell proliferation assay, BaF3 EGFR d746-750/T790M; format: cell-based; conditions: Mus musculus; BaF3 EGFR d746-750/T790M cells, 3-day CTG proliferation, 72 hours
Summary of the method: as §6

IC50 (EGFR (L858R/T790M/C797S))	IC50 (EGFR WT)	IC50 (EGFR (D746-750/C797S))	IC50 (HCC827 cells)	IC50 (PC-9 cells)	IC50 [1]	IC50 [2]	IC50 (NCI-H1975 cells)	IC50 [3]	IC50 (EGFR (D746-750))	IC50 (EGFR (L858R/T790M))	IC50 (EGFR (D770_N771insNPG))	IC50 (EGFR (L858R))	IC50 [4]	IC50 [5]	IC50 [6]	Structure (SMILES)
0.1 nM	0.08 nM	0.45 nM	0.99 nM	33.5 nM	3.99 nM	6.4 nM	4.88 nM	29.2 nM	0.08 nM	0.11 nM	0.08 nM	0.13 nM	–	–	–	CC(C)Oc1nn(CCO)c2c1/C=C/c1n[nH]c3cnc(cc13)-c1cnn(C)c1O[C@@H](C)CN(C)C2 [Ex. 5, 2-[(10S,17E)-8,10,12-trimethyl-16-[(propan-2-yl)oxy]-2,8,10,11,12,13-hexahydro-14H-5,3-(azenometheno)tripyrazolo[3,4-f:3′,4′-j:4″,3″-n][1,4]oxazacyclopentadecin-14-yl]ethan-1-ol]
0.12 nM	0.13 nM	0.49 nM	1.98 nM	27.6 nM	10.9 nM	6.85 nM	28 nM	42.7 nM	0.09 nM	0.15 nM	0.07 nM	0.16 nM	–	–	–	CCOc1nn(CCO)c2c1/C=C/c1n[nH]c3cnc(cc13)-c1cnn(C)c1O[C@H](C)CN(CC)C2 [Ex. 6, 2-[(10R,17E)-16-ethoxy-12-ethyl-8,10-dimethyl-2,8,10,11,12,13-hexahydro-14H-5,3-(azenometheno)tripyrazolo[3,4-f:3′,4′-j:4″,3″-n][1,4]oxazacyclopentadecin-14-yl]ethan-1-ol]
0.23 nM	1.16 nM	0.74 nM	5.17 nM	59.7 nM	14.2 nM	24.3 nM	47.4 nM	70.9 nM	0.29 nM	0.28 nM	1.09 nM	0.89 nM	–	–	–	CCOc1nn(CCO)c2c1/C=C/c1n[nH]c3cnc(cc13)-c1cnn(C)c1OC[C@H](C)N(CC)C2 [Ex. 7, 2-[(11S,17E)-16-ethoxy-12-ethyl-8,11-dimethyl-2,8,10,11,12,13-hexahydro-14H-5,3-(azenometheno)tripyrazolo[3,4-f:3′,4′-j:4″,3″-n][1,4]oxazacyclopentadecin-14-yl]ethan-1-ol]
0.49 nM	0.18 nM	0.33 nM	0.39 nM	12.1 nM	4.19 nM	3.48 nM	3.22 nM	19.8 nM	0.67 nM	0.45 nM	0.29 nM	0.45 nM	0.19 nM	0.93 nM	–	CCN1Cc2c(c(OC(C)C)nn2CCO)/C=C/c2n[nH]c3cnc(cc23)-c2cnn(C)c2O[C@@H](C)C1 [Ex. 9, 2-[(10S,17E)-12-ethyl-8,10-dimethyl-16-[(propan-2-yl)oxy]-2,8,10,11,12,13-hexahydro-14H-5,3-(azenometheno)tripyrazolo[3,4-f:3′,4′-j:4″,3″-n][1,4]oxazacyclopentadecin-14-yl]ethan-1-ol]
0.43 nM	0.1 nM	0.31 nM	0.25 nM	3.65 nM	5.25 nM	2.86 nM	3.14 nM	16.1 nM	0.52 nM	0.44 nM	0.23 nM	0.38 nM	0.16 nM	0.83 nM	–	CCOc1nn(CCO)c2c1/C=C/c1n[nH]c3cnc(cc13)-c1cnn(C)c1O[C@@H](C)CN(C(C)C)C2 [Ex. 11, 2-[(10S,17E)-16-ethoxy-8,10-dimethyl-12-(propan-2-yl)-2,8,10,11,12,13-hexahydro-14H-5,3-(azenometheno)tripyrazolo[3,4-f:3′,4′-j:4″,3″-n][1,4]oxazacyclopentadecin-14-yl]ethan-1-ol]
0.44 nM	0.39 nM	0.31 nM	2.25 nM	13.8 nM	3.64 nM	6.38 nM	22.2 nM	40.7 nM	0.58 nM	0.43 nM	0.42 nM	0.62 nM	0.78 nM	1.36 nM	–	CCOc1nn(CCO)c2c1/C=C/c1n[nH]c3cnc(cc13)-c1cnn(C)c1O[C@H](C)CN(C(C)C)C2 [Ex. 12, 2-[(10R,17E)-16-ethoxy-8,10-dimethyl-12-(propan-2-yl)-2,8,10,11,12,13-hexahydro-14H-5,3-(azenometheno)tripyrazolo[3,4-f:3′,4′-j:4″,3″-n][1,4]oxazacyclopentadecin-14-yl]ethan-1-ol]
1.78 nM	0.15 nM	0.6 nM	0.28 nM	2.74 nM	2.85 nM	2.54 nM	1.51 nM	10 nM	0.14 nM	0.37 nM	0.19 nM	0.2 nM	0.16 nM	0.79 nM	–	CCOc1nn([C@@H](C)CO)c2c1/C=C/c1n[nH]c3cnc(cc13)-c1cnn(C)c1O[C@@H](C)CN(C)C2 [Ex. 19, (2S)-2-[(10S,17E)-16-ethoxy-8,10,12-trimethyl-2,8,10,11,12,13-hexahydro-14H-5,3-(azenometheno)tripyrazolo[3,4-f:3′,4′-j:4″,3″-n][1,4]oxazacyclopentadecin-14-yl]propan-1-ol]
1.5 nM	–	1.83 nM	0.72 nM	0.68 nM	5.16 nM	1.54 nM	79.9 nM	8.81 nM	0.55 nM	–	0.66 nM	–	0.04 nM	1.34 nM	6.61 nM	CCOc1nn(CCO)c2c1/C=C/c1n[nH]c3cnc(cc13)-c1c(CC)nn(C)c1O[C@@H](C)CN(CC)C2 [Ex. 74, 2-[(10S,17E)-16-ethoxy-6,12-diethyl-8,10-dimethyl-2,8,10,11,12,13-hexahydro-14H-5,3-(azenometheno)tripyrazolo[3,4-f:3′,4′-j:4″,3″-n][1,4]oxazacyclopentadecin-14-yl]ethan-1-ol]
